US12545677B2, “Compounds useful as factor XIa inhibitors” (JANSSEN PHARMACEUTICA NV, priority 2020, dated 2026)

Key:
[1] = target: Factor XIa (Homo sapiens, UniProt P03951); assay: Factor XIa inhibition assay using fluorophore-quencher pair peptide substrate; assay type: biochemical
From the text: Biological Example 1: Factor XIa Inhibition Assay
Using Fluorophore-quencher Pair Peptide Substrate
A fluorescence intensity-based assay was used to monitor inhibition of Factor XIa. The peptide substrate, 5Fam-[…]-K5Tamra (purchased from New England Peptide) was chosen based on the […]. Conversion of zymogen FIX to its activated form, FIXa, occurs by proteolytic cleavage by FXIa at two sites, Arg146 and Arg180. The custom peptide used in this assay was based on the Arg146 cleavage site. The peptide substrate was designed with a fluorophore-quencher pair, where the fluorescence is quenched until FXIa cleaves the 8-mer peptide after the Arg residue.
Factor XIa FLINT assay was used with the following 5Fam-[…]-K5Tamra assay buffer: 50 mM Tris, pH 7.5, 100 mM NaCl, 5 mM CaCl2, 0.1 mg/mL BSA, 0.03% CHAPS was used. Assay buffer was prepared by mixing all ingredients fresh. 2×5Fam-[…]-K5Tamra peptide substrate was first prepared in 100% DMSO, then diluted 10 mM to 3 mM in 100% DMSO. Assay buffer was then added directly to the 3 mM stock of substrate to prepare the 30 μM 2× working concentration (15 μM final concentration). The 2× Factor XIa stock solution was prepared by diluting 6.562 μM stock in 1× assay buffer for a 200 pM working stock solution (100 pM final concentration).
Test compound(s) were run in an 11-point, 3-fold serial dilution with a final top compound concentration of […]. Final DMSO in assay was 2% DMSO. FXIa and compound were pre-incubated for 30 minutes and substrate was then added to initiate the reaction. The assay was linear using 100 pM FXIa greater than 30 minutes. More specifically, the assay was run as follows: • 100 nL of 1 mM test compound was dispensed into a black 384-well non-binding Greiner BioOne 784900 plate for 10 μM final concentration with 1% DMSO final concentration; • 5 μL of 1× assay buffer was dispensed to column 24 (low control) and 5 μL 2× Factor XIa solution was dispensed to columns 1-23 (column 23 high control); • the plate was centrifuged with a “cover” plate at 500 rpm for 1 min • the plate was pre-incubated for 30 minutes at room temperature with plate covered; • 5 μL of 2× 5Fam-[…]-K5Tamra peptide substrate was dispensed into the entire plate, columns 1-24; • the plate was centrifuged with a cover plate at 500 rpm for 1 min; • the plate was read kinetically monitoring fluorescence intensity on the BMG PHERAStar at room temperature, using fluorescence module F1 485 mm/520 mm.
(§1) Percent inhibition (IC50) curves were generated per compound tested, and data was analyzed using a 4-parameter logistic fit using GeneData Screener. […]

[2] = target: human plasma kallikrein (Homo sapiens, UniProt P03952); assay: Kallikrein inhibition assay utilizing quenched AMC peptide substrate; assay type: biochemical; details: read-out: Plasma kallikrein (PK) IC50
Sequence of human plasma kallikrein (P03952 391-638 limits assumed): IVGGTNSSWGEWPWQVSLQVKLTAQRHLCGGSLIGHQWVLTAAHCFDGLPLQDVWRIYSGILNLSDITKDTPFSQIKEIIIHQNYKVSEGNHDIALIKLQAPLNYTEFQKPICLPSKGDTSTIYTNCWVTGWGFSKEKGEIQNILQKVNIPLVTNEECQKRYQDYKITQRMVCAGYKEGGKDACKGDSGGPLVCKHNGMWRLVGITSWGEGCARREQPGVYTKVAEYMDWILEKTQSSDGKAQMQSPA
Sequence of human plasma kallikrein (P03952 20-390 partner limits assumed): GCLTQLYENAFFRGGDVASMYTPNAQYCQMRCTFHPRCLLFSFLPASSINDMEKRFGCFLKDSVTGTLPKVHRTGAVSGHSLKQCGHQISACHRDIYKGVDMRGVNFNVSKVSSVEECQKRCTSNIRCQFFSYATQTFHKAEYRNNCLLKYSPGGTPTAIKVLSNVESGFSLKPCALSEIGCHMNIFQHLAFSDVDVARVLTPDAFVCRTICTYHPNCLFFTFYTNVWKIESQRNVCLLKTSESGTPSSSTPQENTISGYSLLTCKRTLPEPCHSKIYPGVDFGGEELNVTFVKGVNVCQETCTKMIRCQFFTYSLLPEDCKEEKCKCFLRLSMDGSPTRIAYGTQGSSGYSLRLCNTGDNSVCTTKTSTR
Procedure: Biological Example 2: Kallikrein Inhibition Assay
Utilizing Quenched AMC Peptide Substrate
A fluorescence intensity-based assay was used to monitor inhibition of human plasma kallikrein. The peptide substrate, Z-Gly-Pro-Arg-AMC (Purchased from Bachem; Catalog #1-1150) was chosen based on its relatively low KM for kallikrein which enables running the assay at lower substrate concentrations to control background fluorescence. The kinetic parameters for this substrate were determined by fitting titration data to the Michaelis-Menten equation yielding a KM=40 μM, kcat=0.76 s^−1, and kcat/KM=18932 M^−1s^−1.
Kallikrein FLINT assay was used with the following Z-Gly-Pro-Arg-AMC assay buffer: 50 mM Tris, pH 7.5, 100 mM NaCl, 5 mM CaCl2, 0.1 mg/mL BSA, 0.03% CHAPS. Assay buffer was prepared by mixing all ingredients fresh. 2× Z-Gly-Pro-Arg-AMC peptide substrate was prepared by diluting 10 mM stock into 1× assay buffer for a 100 μM working concentration (50 μM final concentration). The 2× kallikrein stock solution was prepared by diluting 14.76 μM stock in 1× assay buffer for a 4 nM working stock solution (2 nM final concentration).
Test compound(s) were run in an 11-point, 3-fold serial dilution with a final top compound concentration of 1 μM. Final DMSO in assay: 2% DMSO. 2 nM kallikrein and test compound were pre-incubated for 30 minutes and 50 μM substrate was then added to initiate the reaction. The assay was linear using 2 nM kallikrein greater than 30 minutes. More specifically, the assay was run as follows: • 100 nL of 1 mM test compound was dispensed into a black 384-well non-binding Greiner BioOne 784900 plate for 10 μM final concentration with 1% DMSO final concentration; • 5 μL of 1× assay buffer was dispensed to columns 24 (low control) and 5 μL 2× human kallikrein enzyme solution was dispensed to columns 1-23 (column 23 high control); • the plate was centrifuged with a cover plate at 500 rpm for 1 min • the plate was pre-incubated for 30 minutes at room temperature with plate covered; • 5 μL of 2× Z-Gly-Pro-Arg-AMC peptide substrate was dispensed into the entire plate, columns 1-24; • the plate was centrifuged with a “cover” plate at 500 rpm for 1 min; • the plate was read kinetically monitoring fluorescence intensity on the BMG PHERAStar at room temperature, using fluorescence module F1 340 mm/440 mm.
as §1

[3] = test system: human hepatocytes; assay: In vitro metabolism in human cryopreserved hepatocytes; assay type: in vitro ADME; details: positive control, 10 μM, 1×10^6 cells/mL, 3 hours
Procedure: In Vitro Metabolism of in Human Cryopreserved Hepatocytes
The human hepatocytes used for in vitro metabolism of the compound of formula (I-A) were purchased from Bioreclamation IVT (Westbury, NY); cryopreserved human hepatocytes (lot number: UYG).
Cryopreserved hepatocytes were rapidly thawed […] vials were placed in a 37° C. water bath for approximately 90 sec, then immediately added to pre-warmed hepatocyte thawing media. The cells were resuspended within the media and then centrifuged at 700×g for 7 minutes at room temperature.
The supernatant was discarded, and the cells were resuspended in 2 mL of Krebs-Henseleit buffer containing 12.5 mM HEPES pH 7.4 (KHB). Cell viability and yield were determined by Trypan Blue exclusion. The hepatocytes were then diluted in KHB to a cell concentration of 2×10^6 cells/mL (500 μL/well in 10 mL glass tubes). The tubes were placed on a rotary shaker in a humidifier incubator supplied with 5% CO2 and allowed 15 minutes acclimation at 37° C. prior to use. The compound of formula (I-A) or positive control, diclofenac (10 μM), in KHB was then added to the hepatocytes to achieve a final concentration of 10 μM and cell concentration of 1×10^6 cells/mL (1000 μL final incubation volume). Cells were incubated for zero or 3 hours. At the end of the incubation period, the cells were quenched with 6-volumes of ice-cold acetonitrile containing 0.02% formic acid, vortexed and sonicated (5 min). Precipitated proteins were pelleted by centrifugation (3000 rpm, 10 minutes, 4° C.) and the supernatant was transferred to borosilicate tubes and evaporated to dryness under a gentle stream of nitrogen.
The resulting residue after evaporation was reconstituted in 250 μL of water:acetonitrile (9:1 v/v) containing 0.01% formic acid with sonication and vortexing to aid solubilization of drug-derived materials prior to filtration using 0.45μ nylon filter at 10,000×g at room temperature for 10 minutes. The filtrate was transferred to a 96-well plate for liquid chromatography/ultraviolet/mass spectrometry (LC-UV/MS) analysis.
LC/UV/MS (Liquid Chromatography/Ultraviolet/Mass Spectrometry)
LTQ/Orbitrap (Thermo Scientific, Inc., Bremen, Germany) was carried out by data-dependent accurate mass measurements at resolving powers of 15,000 for full scan MS and 7,500 for MS^2 (also known as MS/MS or tandem mass spec) under single ion locked mass mode.
Quantification of the unchanged drug and its metabolites was carried out by integration of the individual chromatographically separated UV peaks and provided the percentage of total peak area.

Sequence of Factor XIa (P03951 388-625 limits assumed): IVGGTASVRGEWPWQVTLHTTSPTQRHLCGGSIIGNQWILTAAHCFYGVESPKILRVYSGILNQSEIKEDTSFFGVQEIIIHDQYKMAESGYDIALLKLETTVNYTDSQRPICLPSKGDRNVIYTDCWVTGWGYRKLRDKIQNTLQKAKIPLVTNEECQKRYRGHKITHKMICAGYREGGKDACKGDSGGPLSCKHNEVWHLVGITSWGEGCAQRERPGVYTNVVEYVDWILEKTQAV
Sequence of Factor XIa (P03951 19-387 partner limits assumed): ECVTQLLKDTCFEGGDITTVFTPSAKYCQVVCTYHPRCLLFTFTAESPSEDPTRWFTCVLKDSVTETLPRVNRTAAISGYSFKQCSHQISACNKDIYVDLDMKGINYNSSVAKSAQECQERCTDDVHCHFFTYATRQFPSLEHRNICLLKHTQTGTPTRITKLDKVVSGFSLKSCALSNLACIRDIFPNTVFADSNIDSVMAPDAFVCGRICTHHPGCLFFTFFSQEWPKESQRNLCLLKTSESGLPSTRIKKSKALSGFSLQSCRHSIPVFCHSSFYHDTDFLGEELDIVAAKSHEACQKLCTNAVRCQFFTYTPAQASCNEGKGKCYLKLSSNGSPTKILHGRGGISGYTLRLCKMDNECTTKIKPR

SMILES	IC50 [1]	IC50 [2]	turnover from human hepatocytes [3]
[2H]C([2H])(O)c1nccc(-c2cnc([C@@H]3CCC4([2H])CC(c5c(-n6cnnn6)ccc(Cl)c5F)=CC(=O)N34)[nH]2)c1F (single isomer, unassigned) [Compound of formula (I-F), (3S,8aR*)-7-(3-Chloro-2-fluoro-6-(1H-tetrazol-1-yl)phenyl)-3-(5-(3-fluoro-2-(hydroxymethyl-d2)pyridin-4-yl)-1H-imidazol-2-yl)-2,3,8,8a-tetrahydroindolizin-5(1H)-one-8a-d]	5.1 nM	34 nM	–
O=C(O)Cc1ccccc1Nc1c(Cl)cccc1Cl [diclofenac, reference compound]	–	–	89%
[2H]C1([2H])C[C@@H](c2ncc(-c3ccnc(CO)c3F)[nH]2)N2C(=O)C=C(c3c(-n4cnnn4)ccc(Cl)c3F)C([2H])([2H])[C@]21[2H] (single isomer, unassigned) [Compound of formula (I-G)]	3.9 nM	–	–
[2H]C1([2H])C(c2c(-n3cnnn3)ccc(Cl)c2F)=CC(=O)N2[C@H](c3ncc(-c4ccnc(CO)c4F)[nH]3)CC[C@@]21[2H] (single isomer, unassigned) [Compound of formula (I-K)]	–	9.7 nM	–
[2H]c1nnnn1-c1ccc(Cl)c(F)c1C1=CC(=O)N2[C@@H](CC[C@@H]2c2ncc(-c3ccnc(C([2H])([2H])O)c3F)[nH]2)C1 (stereo in doubt) [Compound of formula (I-J), (3R,8aS)-7-(3-Chloro-2-fluoro-6-(1H-tetrazol-1-yl-d)phenyl)-3-(4-(3-fluoro-2-(hydroxymethyl-d2)pyridin-4-yl)-1H-imidazol-2-yl)-2,3,8,8a-tetrahydroindolizin-5(1H)-one]	4.1 nM	32 nM	–
